From paper PMC5787466, “Accelerated bottom-up drug design platform enables the discovery of novel stearoyl-CoA desaturase 1 inhibitors for cancer therapy” (Oncotarget, 2017)

Test system: A498 ccRCC tumors
Assay: Subcutaneous A498 xenograft tumor growth
Assay type: in vivo, athymic nude mice
Conditions: oral administration in chow, 60, 180 or 600 mg/kg, 4.5 weeks
Experimental: SCD1 expression correlates with poor cancer patient outcomes as evidenced by decreased survival in multiple cancers including gastric, lung, ovarian and renal cell carcinoma (Figure 5a-5b, Supplementary Figure 9a-9b). […] Our findings in thyroid carcinoma similarly present discordancy between tumor response to SCD1 inhibitors and SCD1 expression. SSI-4 was tested in vivo for anti-tumorigenic activity.
Figure 5 SSI-4 attenuates tumor progression Kaplan Meier survival analysis of indicated subtypes of (a) gastric and (b) lung cancer patients sorted into high versus low SCD1 mRNA expression, for multiple disease subtypes. Patient risk assessment at indicated mean follow-up is shown. […] (h) Tumor burden of ACHN pulmonary metastasis in response to SSI-4 treatment (180mg/kg) measured by ex vivo bioluminescent flux, given in photons/second (n=5 per group). ([…]) Tumor burden of ACHN pulmonary metastasis as determined by H&E staining of lungs from (h).
A498 cells were injected subcutaneously in the flank of athymic nude mice at 1x10^6/mouse. […] Tumor burden was measured using calipers. […] Once therapy was completed, lung tissue was harvested and analyzed for tumor burden via ex vivo bioluminescent imaging, and hematoxylin and eosin (H&E) staining of formalin-fixed, paraffin-embedded lung tissue. […]

## CNC(=O)c1ccnc(NC(=O)N2CCC(Oc3ccccc3Cl)CC2)c1 [SSI-4]
  growth of A498 ccRCC tumors: growth inhibition
